Earlier results, collected in patent publication US20080287471A1, “4'-Substituted Carbovir And Abacavir-Derivatives As Well As Related Compounds With Hiv And Hcv Antiviral Activity” (priority 2003, published 2008).

Test system: HIV
Details: after a short course of abacavir monotherapy

Nc1nc(NC2CC2)c2ncn([C@H]3C=C[C@@H](CO)C3)c2n1 [abacavir, Abacavir]
average reduction in viral load: more than 1.4 log 10 RNA copies/ml
